Reference: patent US12162858B2, “Quinoline derivatives as inhibitors of AXL/MER RTK and CSF1R” (QURIENT CO., LTD., priority 2018, dated 2024)
Where two headings read alike, the source gives them in different places.

Experiments:
[1] = biological target: T1, CSF1R (Homo sapiens, UniProt P07333); experiment: Cellular CSF1R inhibition ELISA (p-CSF1R, M-CSF-induced) using THP-1 cells; format: cell-based; parameters: THP-1 cells act as a model for human monocytes; endogenous in cells; host or cells: THP-1
Text: The normal proto-oncogene c-fms encodes the macrophage growth factor (M-CSF, also known as CSF1) receptor involved in growth, survival, and differentiation along the monocyte-macrophage lineage. THP-1 cells act as a model for human monocytes. It confirms that an increased phosphorylation of CSF1R (p-CSF1R) can be observed, when induced by CSF1R ligand, CSF1.
The THP-1 cells should be maintained from 5×10^5 to 1×10^6 cells/ml in the cell culture flask. After centrifugation, the supernatant is aspirated. The cell pellet is re-suspended with pre-warmed growth medium (RPMI1640, 10% FBS, 0.05 mM 2-Mercaptoethanol) and cells are separated by pipetting 6 times up and down with a 10 ml serological pipette. The cell suspension has to be diluted to a final concentration of 2×10^5 cells per 80 μl with pre-warmed growth medium. 80 μl of cell suspension is added to all wells of plates. Cell-plates are incubated at 37° C./5% CO2. Dissolve compound in 100% DMSO to make 10 mM stock solutions (Aliquots stored in the Nitrogen Cabinet). Dilute 10 mM compounds solutions for 2-fold in 100% DMSO to get 5 mM solutions (10 μl+10 μl DMSO), and then make a 3-fold serial dilution (10 μl+20 μl DMSO) for 10 doses. For reference compounds: Dilute 10 mM compounds solutions for 20-fold in 100% DMSO to get 0.5 mM solutions (2 μl+38 μl DMSO), and then make a 3-fold serial dilution (10 μl+20 μl DMSO) for 10 doses. Transfer 2 μl diluted compounds to 198 μl medium to get solution of 50 μM concentration at top point for compounds and 5 μM for reference compounds. Then transfer 20 μl cpd solution into assay plate (Duplicate wells). The plate is incubated at 37° C./5% CO2 for 24 h. The final concentration of DMSO in all wells is […]. Reconstitute human M-CSF at 50 μg/ml in sterile water. (Aliquots stored in −80° C.). 1:1000 dilute human M-CSF by fresh medium to 50 ng/ml. After 24 h compounds treatment, transfer 25 μl diluted human M-CSF (50 ng/ml) to cell plate according to the plate map. The final concentration of human M-CSF in all wells is 10 ng/ml.
The plates is incubated at 37° C./5% CO2 for 5 min. In the beginning the appropriate amount of lysis buffer complete (100 μL/well) is prepared and stored on ice. After 5 min human M-CSF stimulation, wash plates once with 300 μL ice cold PBS. Then 100 μl lysis buffer is added to each well. The plate is shacked for 40 min at 4° C. Plates can now be stored at −20° C. After equilibrate the micro-well strips at room temperature, break off the required number of micro-wells. Place the micro-wells in the strip holder. Unused micro-wells must be resealed and stored at 4° C. immediately. Add 90 μl of cell lysate to the appropriate well. Seal with tape and press firmly onto top of micro-wells. Incubate the plate for 2 h at 37° C. Gently remove the tape and wash wells 4 times with 1× Wash Buffer, 200 μl each time for each well. Add 100 μl of reconstituted Detection Antibody (green color) to each well. Seal with tape and incubate the plate at 37° C. for 1 h. Repeat wash procedure. Add 100 μl of reconstituted HRP-Linked secondary antibody to each well. Seal with tape and incubate the plate for 30 min at 37° C. Repeat wash procedure. Add 100 μl of TMB Substrate to each well. Seal with tape and incubate the plate for 10 min at 37° C. or 30 min at 25° C. Calculations and Formulas: The following calculations and formulas are used for data analysis using XL Fit software: The curve fitting was made using the Sigmoidal Dose-Response Model (Fit model, 205).

[2] = biological target: T1, CSF1R; experiment: KINOMEscan competition binding assay for CSF1R; parameters: DNA tag for qPCR (not a peptide); host or cells: E. coli/T7 phage or HEK-293; conditions: for Kd: read-out: CSF1R kinase binding activity (Kd)
Protocol: KINOMEscan™ is based on a competition binding assay that quantitatively measures the ability of a compound to compete with an immobilized, active-site directed ligand. The assay is performed by combining three components: DNA-tagged kinase; immobilized ligand; and a test compound. The ability of the test compound to compete with the immobilized ligand is measured via quantitative PCR of the DNA tag.
E. coli were grown to log-phase and infected with T7 phage and incubated with shaking at 32° C. until lysis. The lysates were centrifuged and filtered to remove cell debris. The remaining kinases were produced in HEK-293 cells and subsequently tagged with DNA for qPCR detection. Streptavidin-coated magnetic beads were treated with biotinylated small molecule ligands for 30 minutes at room temperature to generate affinity resins for kinase assays. The liganded beads were blocked with excess biotin and washed with blocking buffer (SeaBlock (Pierce), 1% BSA, 0.05% Tween 20, 1 mM DTT) to remove unbound ligand and to reduce non-specific binding. Binding reactions were assembled by combining kinases, liganded affinity beads, and test compounds in 1× binding buffer (20% SeaBlock, 0.17×PBS, 0.05% Tween 20, 6 mM DTT). Test compounds were prepared as 111× stocks in 100% DMSO. Kds were determined using an 11-point 3-fold compound dilution series with three DMSO control points. All compounds for Kd measurements are distributed by acoustic transfer (non-contact dispensing) in 100% DMSO. The compounds were then diluted directly into the assays such that the final concentration of DMSO was 0.9%. In case of % inhibition, test compounds were prepared as 40× stocks in 100% DMSO and directly diluted into the assay. All reactions performed in polypropylene 384-well plate. Each was a final volume of 0.02 ml. The assay plates were incubated at room temperature with shaking for 1 hour and the affinity beads were washed with wash buffer (1×PBS, 0.05% Tween 20). The beads were then re-suspended in elution buffer (1×PBS, 0.05% Tween 20, 0.5 μM non-biotinylated affinity ligand) and incubated at room temperature with shaking for 30 minutes. The kinase concentration in the eluates was measured by qPCR.
The CSF1R kinase binding activity results are shown in tables 1 (Kd) and 2 (percent inhibition at a concentration of 0.1 uM of compound to be tested).
Binding constants (Kds) were calculated with a standard dose-response curve using the Hill equation: […]
The Hill Slope was set to −1.
Curves were fitted using a non-linear least square fit with the Levenberg-Marquardt algorithm.
Binding % inhibition were calculated with as below:
[formula] • negative control=DMSO (100% Ctrl) • positive control=control compound (0% Ctrl)

[3] = read-out: CSF1R kinase binding activity, Percent (%) inhibition
[4] = read-out: CSF1R kinase binding activity, Range

T1 sequence (P07333 20-972): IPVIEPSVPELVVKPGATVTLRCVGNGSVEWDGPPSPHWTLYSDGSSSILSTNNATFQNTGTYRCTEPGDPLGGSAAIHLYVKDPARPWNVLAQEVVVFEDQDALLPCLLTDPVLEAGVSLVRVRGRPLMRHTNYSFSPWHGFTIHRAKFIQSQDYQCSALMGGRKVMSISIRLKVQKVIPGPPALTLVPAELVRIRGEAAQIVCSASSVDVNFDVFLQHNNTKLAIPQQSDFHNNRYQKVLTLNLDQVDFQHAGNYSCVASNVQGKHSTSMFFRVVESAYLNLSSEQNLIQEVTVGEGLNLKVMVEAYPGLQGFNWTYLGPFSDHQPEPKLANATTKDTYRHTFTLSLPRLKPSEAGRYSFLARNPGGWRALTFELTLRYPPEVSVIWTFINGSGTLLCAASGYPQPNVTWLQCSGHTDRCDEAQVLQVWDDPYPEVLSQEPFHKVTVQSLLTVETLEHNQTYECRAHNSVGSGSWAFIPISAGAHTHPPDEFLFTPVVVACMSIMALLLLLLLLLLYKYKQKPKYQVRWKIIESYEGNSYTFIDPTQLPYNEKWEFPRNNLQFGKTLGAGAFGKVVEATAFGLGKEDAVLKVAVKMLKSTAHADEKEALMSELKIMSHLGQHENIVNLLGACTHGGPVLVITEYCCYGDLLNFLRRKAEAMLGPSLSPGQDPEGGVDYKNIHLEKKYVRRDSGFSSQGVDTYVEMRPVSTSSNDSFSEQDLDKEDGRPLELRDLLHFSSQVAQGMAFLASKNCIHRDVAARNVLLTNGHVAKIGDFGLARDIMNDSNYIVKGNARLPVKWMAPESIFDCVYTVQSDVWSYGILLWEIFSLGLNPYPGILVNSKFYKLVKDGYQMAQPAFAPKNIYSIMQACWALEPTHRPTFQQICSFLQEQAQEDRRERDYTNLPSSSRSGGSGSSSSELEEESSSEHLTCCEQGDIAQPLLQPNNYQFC

Compound | IC50 [1] [nM] | inhibition at 0.1 µM [2, 3] [%] | inhibition at 0.1 µM [2, 4] [%] | Kd [2] [nM]
CCn1cc(OCC(F)(F)F)c(C(=O)Nc2ccc(Oc3ccnc4cc(OC)c(OC)cc34)cn2)n1 [Compound 4] | < 500 | 98 | ≥ 80 | < 100
CCn1cc(OC(C)C)c(C(=O)Nc2ccc(Oc3ccnc4cc(OC)c(OC)cc34)cn2)n1 [Compound 6] | < 500 | 97 | ≥ 80 | < 100
CCCn1cc(OCC(F)(F)F)c(C(=O)Nc2ccc(Oc3ccnc4cc(OC)c(OC)cc34)cn2)n1 [Compound 7] | < 500 | 97 | ≥ 80 | < 100
CCn1cc(OCC2CCC2)c(C(=O)Nc2ccc(Oc3ccnc4cc(OC)c(OC)cc34)cn2)n1 [Compound 8] | < 500 | 94 | ≥ 80 | < 100
COc1cc2nccc(Oc3ccc(NC(=O)c4nn(CCN(C)C)cc4OCC(F)(F)F)nc3)c2cc1OC [Compound 9] | < 500 | 92 | ≥ 80 | < 100
COCCn1cc(OCC(F)(F)F)c(C(=O)Nc2ccc(Oc3ccnc4cc(OC)c(OC)cc34)cn2)n1 [Compound 10] | < 500 | 98 | ≥ 80 | < 100
CNCCn1cc(OCC(F)(F)F)c(C(=O)Nc2ccc(Oc3ccnc4cc(OC)c(OC)cc34)cn2)n1 [Compound 11] | 500 to 1000 | 88 | ≥ 80 | < 100
CCCn1cc(OCC(F)F)c(C(=O)Nc2ccc(Oc3ccnc4cc(OC)c(OC)cc34)cn2)n1 [Compound 12] | < 500 | 98 | ≥ 80 | < 100
COc1cc2nccc(Oc3ccc(NC(=O)c4n[nH]cc4OCC(F)(F)F)nc3)c2cc1OC [Compound 16] | < 500 | 99 | ≥ 80 | –
COc1cc2nccc(Oc3ccc(NC(=O)c4nn(CC5COC5)cc4OCC(F)(F)F)nc3)c2cc1OC [Compound 92] | < 500 | 100 | ≥ 80 | –
COc1cc2nccc(Oc3ccc(NC(=O)c4nn(C5CCN(C)C5)cc4OCC(F)(F)F)cc3F)c2cc1OC (centres unmarked) [Compound 96] | ≥ 1000 | 57 | 50 to 80 | –
COc1cc2nccc(Oc3ccc(NC(=O)c4nn(CC5COC5)cc4OCC(F)(F)F)cc3F)c2cc1OC [Compound 97] | ≥ 1000 | 56 | 50 to 80 | –
COc1cc2nccc(Oc3ccc(NC(=O)c4nn(C5CCN(C)C5)cc4OCC(F)(F)F)cc3C)c2cc1OC (centres unmarked) [Compound 98] | ≥ 1000 | 60 | 50 to 80 | –
COc1cc2nccc(Oc3ccc(NC(=O)c4nn(CC5COC5)cc4OCC(F)(F)F)cc3C)c2cc1OC [Compound 99] | 500 to 1000 | 94 | ≥ 80 | –
COc1cc2nccc(Oc3ccc(NC(=O)c4nn(C5CCN(C)C5)cc4OCC(F)(F)F)cc3)c2cc1OC (centres unmarked) [Compound 100] | ≥ 1000 | 36 | < 50 | –
COc1cc2nccc(Oc3ccc(NC(=O)c4nn(CC5COC5)cc4OCC(F)(F)F)cc3)c2cc1OC [Compound 101] | ≥ 1000 | 45 | < 50 | –
COc1cc2nccc(Oc3ccc(NC(=O)c4nn(C)cc4OCC(F)(F)F)nn3)c2cc1OC [Compound 102] | < 500 | 87 | ≥ 80 | –
COc1cc2nccc(Oc3ccc(NC(=O)c4nn(CC(C)C)cc4OCC(F)(F)F)cn3)c2cc1OC [Compound 103] | ≥ 1000 | 29 | < 50 | –
COCCn1cc(OCC(F)(F)F)c(C(=O)Nc2ccc(Oc3ccnc4cc(OC)c(OC)cc34)nc2)n1 [Compound 104] | ≥ 1000 | 46 | < 50 | –
CCCn1cc(OCCOC)c(C(=O)Nc2ccc(Oc3ccnc4cc(OC)c(OC)cc34)cn2)n1 [Compound 105] | < 500 | 91 | ≥ 80 | –
CCCn1cc(OCC2COC2)c(C(=O)Nc2ccc(Oc3ccnc4cc(OC)c(OC)cc34)cn2)n1 [Compound 106] | < 500 | 95 | ≥ 80 | –
COCCOc1cn(C2CC2)nc1C(=O)Nc1ccc(Oc2ccnc3cc(OC)c(OC)cc23)cn1 [Compound 107] | < 500 | 90 | ≥ 80 | –
